Results reported in PubChem BioAssay AID2060904 (Molecular Pharmacology Branch, DTP, NCI, 2025).

Tested on: 349418-098-R-PDC complex spheroid viability
Experiment: Anticancer human tumor 349418-098-R-PDC patient-derived lung adenocarcinoma cell line growth inhibition [RAS]
Settings: for IC50: curve of first compound; for viability, T/C: stronger effect = lower value
Source text: RAS pathway inhibitors in Combinations in Complex Spheroids
A high-throughput screen of multi-cell type tumor spheroids was designed to identify active combinations of RAS pathway inhibitors and targeted small molecules. Complex spheroids include a stromal component modeled by human endothelial cells (HUVEC) and fibroblasts modeled by human mesenchymal stem cells (MSCs). The concentration ranges selected for each drug and investigational agent were based upon clinically achievable concentrations if the clinical Cmax of the agent was known.
Compounds. The drugs and investigational agents: abemaciclib (NSC768073), cobimetinib (NSC768068), divarasib (GDC6063, NSC841802), docetaxel (NSC628503), GDC-1971 (RLY-1971, NSC841576), gemcitabine (NSC613327), inavolisib (NSC800729), ipatasertib (NSC767898), KB-0742 (NSC834161), MRTX-1133 (NSC836407), osimertinib (NSC779217), RMC-4630 (NSC839698), RMC-6236 (NSC851965), RMC-6291 (NSC852671), Ro-3306 (NSC812927), sapanisertib (NSC764658), SN-38 (NSC673596), staurosporine (NSC755774), SY5609 (NSC837396), and tovorafenib (DAY101, NSC766906), were obtained from the National Cancer Institute (NCI) Developmental Therapeutics Program Chemical Repository. The FDA-approved anticancer drug set is available from the NCI Developmental Therapeutics Program. […] The stock solutions were prepared in dimethyl sulfoxide (DMSO, Sigma-Aldrich, St. Louis, MO, cat. D2650) at 800-fold the tested concentration and stored at -70 degrees C prior to their use. All drugs and investigational agents were tested over a range starting from a high concentration at or near the clinical Cmax and decreasing in half-log increments. If the clinical Cmax for an agent had not been determined, the highest concentration tested was 10 microM.
Cell Culture. All cells were maintained in an incubator at 37 degrees C and 5% CO2 with 95% humidity. The PDC lines were cultured according to standard operating procedures established by the NCI PDMR. All PDCs were thawed and cultured in Matrigel-coated flasks prepared with a working solution of 1X Ham's F-12 nutrient mix, without supplementation (Invitrogen, Waltham, MA, cat. 11765054), 100 U/mL penicillin-streptomycin (Invitrogen, cat. 15140122), and 2.5% Matrigel (Corning Inc., Corning, NY, cat. 354248) for the first three passages. The 362531-283-R-J2-PDC and 782815-120-R-J1-PDC lines were cultured in 6C/Colon 1B media, which includes advanced DMEM/F-12 (Thermo Fisher Scientific, cat. 12634028), 10 mM HEPES (Thermo Fisher Scientific, cat. 15630080), 1X GlutaMAX supplement (Thermo Fisher Scientific, cat. 35050061), 0.1 mg/mL primocin (InvivoGen, San Diego, CA, cat. ant-pm-2), 10% defined fetal bovine serum, heat inactivated (HyClone Laboratories Inc., Logan, UT, cat. SH30070.03HI), 50% L-WRN conditioned media (ATCC, cat. CRL-3276), 1.25 mM N-Acetyl-L-cysteine (Sigma-Aldrich, cat. A9165), 10 mM nicotinamide (Sigma-Aldrich, cat. N0636), 1X B-27 supplement (Thermo Fisher Scientific, cat. 17504044), 1X N-2 supplement (Thermo Fisher Scientific, cat. 17502048), 50 ng/mL human EGF (Thermo Fisher Scientific, cat. PHG0311), and 10 microM Y-27632 dihydrochloride (Tocris Bioscience, cat. 1254). The K12877-001-R-J1-PDC line was cultured in 6I media, which includes all 6C/Colon 1B media plus 10 ng/mL human FGF-10 (PeproTech, cat. 100-26), 1 ng/mL human FGF-2 (PeproTech, cat. 100-18B), 1 µM prostaglandin E2 (Tocris Bioscience, cat. 2296), […] hydrocortisone (Sigma-Aldrich, cat. H4001), and […] bovine insulin (Sigma-Aldrich, cat. I6634). The K86415-001-R-J1-PDC line was cultured in 6D media, which includes all 6C/Colon 1B media components minus the L-WRN conditioned media. The 485176-168-R4-J1-PDC was cultured in PANC media, which includes all 6C/Colon 1B media plus 100 ng/mL human FGF-10 (PeproTech, cat. 100-26), 500 nM SB-431542 (Selleckchem, cat. S1067), and 10 nM gastrin (Tocris Bioscience, cat. 3006). […]
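Also: spheroids exposed to compound for seven days before viability readout.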

Compound: C=CC(=O)N1CCN(c2nc(OCC3CCCN3C)nc3c(F)c(-c4nc(N)cc(C)c4C(F)(F)F)c(Cl)cc23)C(C)C1 (configuration not stated) + C#Cc1c(F)ccc2cc(O)cc(-c3ncc4c(N5CC6CCC(C5)N6)nc(OCC56CCCN5CC(F)C6)nc4c3F)c12
- IC50 (second compound 0.0316 µM): > 1000 nM
- IC50 (second compound 0.1 µM): > 1000 nM
- IC50 (second compound 0.316 µM): > 1000 nM
- IC50 (second compound 1 µM): > 1000 nM
- IC50 (second compound 3.16 µM): > 1000 nM
- IC50 (second compound 10 µM): 272 nM
- viability, T/C (second compound 0.0316 µM, first compound 0.00316 µM): 82.8%
- viability, T/C (second compound 0.0316 µM, first compound 0.01 µM): 105%
- viability, T/C (second compound 0.0316 µM, first compound 0.0316 µM): 112%
- viability, T/C (second compound 0.0316 µM, first compound 0.1 µM): 75.1%
- viability, T/C (second compound 0.0316 µM, first compound 0.316 µM): 111%
- viability, T/C (second compound 0.0316 µM, first compound 1 µM): 69.8%
- viability, T/C (second compound 0.1 µM, first compound 0.00316 µM): 74.3%
- viability, T/C (second compound 0.1 µM, first compound 0.01 µM): 124%
- viability, T/C (second compound 0.1 µM, first compound 0.0316 µM): 104%
- viability, T/C (second compound 0.1 µM, first compound 0.1 µM): 87.2%
- viability, T/C (second compound 0.1 µM, first compound 0.316 µM): 98.3%
- viability, T/C (second compound 0.1 µM, first compound 1 µM): 83.9%
- viability, T/C (second compound 0.316 µM, first compound 0.00316 µM): 65.6%
- viability, T/C (second compound 0.316 µM, first compound 0.01 µM): 125%
- viability, T/C (second compound 0.316 µM, first compound 0.0316 µM): 109%
- viability, T/C (second compound 0.316 µM, first compound 0.1 µM): 79.7%
- viability, T/C (second compound 0.316 µM, first compound 0.316 µM): 89.3%
- viability, T/C (second compound 0.316 µM, first compound 1 µM): 87.6%
- viability, T/C (second compound 1 µM, first compound 0.00316 µM): 81%
- viability, T/C (second compound 1 µM, first compound 0.01 µM): 114%
- viability, T/C (second compound 1 µM, first compound 0.0316 µM): 82.9%
- viability, T/C (second compound 1 µM, first compound 0.1 µM): 91.2%
- viability, T/C (second compound 1 µM, first compound 0.316 µM): 83.2%
- viability, T/C (second compound 1 µM, first compound 1 µM): 77.9%
- viability, T/C (second compound 3.16 µM, first compound 0.00316 µM): 77.4%
- viability, T/C (second compound 3.16 µM, first compound 0.01 µM): 105%
- viability, T/C (second compound 3.16 µM, first compound 0.0316 µM): 112%
- viability, T/C (second compound 3.16 µM, first compound 0.1 µM): 73.3%
- viability, T/C (second compound 3.16 µM, first compound 0.316 µM): 116%
- viability, T/C (second compound 3.16 µM, first compound 1 µM): 75.2%
- viability, T/C (second compound 10 µM, first compound 0.00316 µM): 91%
- viability, T/C (second compound 10 µM, first compound 0.01 µM): 75%
- viability, T/C (second compound 10 µM, first compound 0.0316 µM): 85.3%
- viability, T/C (second compound 10 µM, first compound 0.1 µM): 66.8%
- viability, T/C (second compound 10 µM, first compound 0.316 µM): 47.7%
- viability, T/C (second compound 10 µM, first compound 1 µM): 7.82%
